Source: ChEMBL document CHEMBL1201862, “PubChem BioAssay data set” (2004)
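These data come from cells grown in 96-well plates and exposed to compound for 48 hours at five concentrations. The concentration for 50% growth inhibition is given as GI50.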 Activity calls are given as the source filed them. Rule as the data show it: active = GI50 up to about 1.1 µM and inactive = higher.

Key:
Experiment in all cases: inhibition of tumour cell growth, NCI panel, 48 h
NCI-H522 = system: NCI-H522
RPMI-8226 = system: RPMI-8226
SK-MEL-5 = system: SK-MEL-5
SNB-75 = system: SNB-75
OVCAR-5 = system: OVCAR-5
CAKI-1 = system: CAKI-1
UO-31 = system: UO-31
RXF 393 = system: RXF 393
OVCAR-3 = system: OVCAR-3
Malme-3M = system: Malme-3M
SN12C = system: SN12C
SK-MEL-28 = system: SK-MEL-28
UACC-257 = system: UACC-257
UACC-62 = system: UACC-62
HT-29 = system: HT-29
A549 = system: A549
SF-295 = system: SF-295
SNB-19 = system: SNB-19
TK-10 = system: TK-10
ACHN = system: ACHN

SMILES | GI50 (NCI-H522) | GI50 (RPMI-8226) | GI50 (SK-MEL-5) | GI50 (SNB-75) | GI50 (OVCAR-5) | GI50 (CAKI-1) | GI50 (UO-31) | GI50 (RXF 393) | GI50 (OVCAR-3) | GI50 (Malme-3M) | GI50 (SN12C) | GI50 (SK-MEL-28) | GI50 (UACC-257) | GI50 (UACC-62) | GI50 (HT-29) | GI50 (A549) | GI50 (SF-295) | GI50 (SNB-19) | GI50 (TK-10) | GI50 (ACHN)
C/C=C/C1=CC(=O)C(O)C1O (stereo unspecified) | 5.86 µM (inactive) | 22.1 µM (inactive) | 28.4 µM (inactive) | 23.6 µM (inactive) | 39.7 µM (inactive) | 14.5 µM (inactive) | 32.2 µM (inactive) | 15.1 µM (inactive) | 24.5 µM (inactive) | 27.1 µM (inactive) | 23.1 µM (inactive) | 30.9 µM (inactive) | 29.4 µM (inactive) | 26.6 µM (inactive) | 29.6 µM (inactive) | 29 µM (inactive) | 44.7 µM (inactive) | 37.2 µM (inactive) |  | 
CCOC(=O)c1cc(C2CCN(Cc3ccccc3)C2=S)c(C(=O)C=[N+]=[N-])[nH]1 (stereo unspecified) | 20.7 µM (inactive) | 45.9 µM (inactive) | 19.3 µM (inactive) | 29.4 µM (inactive) | 30.3 µM (inactive) | 68.5 µM (inactive) | 18.8 µM (inactive) | 31 µM (inactive) | 17.5 µM (inactive) | 28.7 µM (inactive) |  | 26 µM (inactive) | 25.8 µM (inactive) | 18.3 µM (inactive) | 31.5 µM (inactive) | 26.4 µM (inactive) | 20.5 µM (inactive) | 28.8 µM (inactive) | 35.9 µM (inactive) | 27.2 µM (inactive)
O=C(O)C1=CNC(C(=O)O)=NN1 | > 100 µM (inactive) | > 100 µM (inactive) | > 100 µM (inactive) | > 100 µM (inactive) |  | > 100 µM (inactive) | > 100 µM (inactive) | > 100 µM (inactive) | > 100 µM (inactive) | > 100 µM (inactive) | > 100 µM (inactive) | > 100 µM (inactive) | > 100 µM (inactive) | > 100 µM (inactive) | > 100 µM (inactive) | > 100 µM (inactive) | > 100 µM (inactive) | > 100 µM (inactive) | > 100 µM (inactive) | > 100 µM (inactive)
O=C(Nc1c(C(=O)NC2CCCCC2)[nH]c(=O)[nH]c1=O)c1ccc(Cl)cc1 | 44.3 µM (inactive) | > 100 µM (inactive) | > 100 µM (inactive) | 22 µM (inactive) | > 100 µM (inactive) | > 100 µM (inactive) | > 100 µM (inactive) | 79.6 µM (inactive) | > 100 µM (inactive) | > 100 µM (inactive) | > 100 µM (inactive) | > 100 µM (inactive) |  | > 100 µM (inactive) | > 100 µM (inactive) | > 100 µM (inactive) | > 100 µM (inactive) | < 0.01 µM (active) | > 100 µM (inactive) | > 100 µM (inactive)
Cc1csc(/N=C(/NCCN2CCOCC2)Nc2nc(C)cs2)n1 | > 100 µM (inactive) | > 100 µM (inactive) | > 100 µM (inactive) | > 63.2 µM (inactive) | > 100 µM (inactive) | > 76.2 µM (inactive) | > 100 µM (inactive) | > 100 µM (inactive) | > 100 µM (inactive) | > 100 µM (inactive) | > 100 µM (inactive) | > 100 µM (inactive) | > 100 µM (inactive) | > 100 µM (inactive) | > 100 µM (inactive) | > 100 µM (inactive) | > 80.2 µM (inactive) | > 100 µM (inactive) |  | 
C[C@H](O)C(=O)SC[C@H](NC(=O)CC[C@@H](N)C(=O)O)C(=O)NCC(=O)O | > 100 µM (inactive) | > 100 µM (inactive) | > 100 µM (inactive) | 14.5 µM (inactive) | > 100 µM (inactive) | > 100 µM (inactive) | > 100 µM (inactive) | > 100 µM (inactive) | > 100 µM (inactive) | > 100 µM (inactive) | > 100 µM (inactive) | > 100 µM (inactive) | > 100 µM (inactive) | > 100 µM (inactive) | > 100 µM (inactive) |  | > 100 µM (inactive) |  | > 100 µM (inactive) | > 100 µM (inactive)
